Source: PMC7026418, “The kinase polypharmacology landscape of clinical PARP inhibitors” (Scientific Reports, 2020)
Where two headings read alike, the source gives them in different places. Values belong to the compound of their own block, whether it stands above or below them.

Columns and labels:
Test in all cases: biochemical
Parameters in all cases: DiscoveRx KINOMEscan active site-directed competition binding; percent of control kinase bound to immobilised ligand
NEK9 = target: T1, NEK9 (Homo sapiens, UniProt Q8TD19)
T1 sequence (Q8TD19 1-979): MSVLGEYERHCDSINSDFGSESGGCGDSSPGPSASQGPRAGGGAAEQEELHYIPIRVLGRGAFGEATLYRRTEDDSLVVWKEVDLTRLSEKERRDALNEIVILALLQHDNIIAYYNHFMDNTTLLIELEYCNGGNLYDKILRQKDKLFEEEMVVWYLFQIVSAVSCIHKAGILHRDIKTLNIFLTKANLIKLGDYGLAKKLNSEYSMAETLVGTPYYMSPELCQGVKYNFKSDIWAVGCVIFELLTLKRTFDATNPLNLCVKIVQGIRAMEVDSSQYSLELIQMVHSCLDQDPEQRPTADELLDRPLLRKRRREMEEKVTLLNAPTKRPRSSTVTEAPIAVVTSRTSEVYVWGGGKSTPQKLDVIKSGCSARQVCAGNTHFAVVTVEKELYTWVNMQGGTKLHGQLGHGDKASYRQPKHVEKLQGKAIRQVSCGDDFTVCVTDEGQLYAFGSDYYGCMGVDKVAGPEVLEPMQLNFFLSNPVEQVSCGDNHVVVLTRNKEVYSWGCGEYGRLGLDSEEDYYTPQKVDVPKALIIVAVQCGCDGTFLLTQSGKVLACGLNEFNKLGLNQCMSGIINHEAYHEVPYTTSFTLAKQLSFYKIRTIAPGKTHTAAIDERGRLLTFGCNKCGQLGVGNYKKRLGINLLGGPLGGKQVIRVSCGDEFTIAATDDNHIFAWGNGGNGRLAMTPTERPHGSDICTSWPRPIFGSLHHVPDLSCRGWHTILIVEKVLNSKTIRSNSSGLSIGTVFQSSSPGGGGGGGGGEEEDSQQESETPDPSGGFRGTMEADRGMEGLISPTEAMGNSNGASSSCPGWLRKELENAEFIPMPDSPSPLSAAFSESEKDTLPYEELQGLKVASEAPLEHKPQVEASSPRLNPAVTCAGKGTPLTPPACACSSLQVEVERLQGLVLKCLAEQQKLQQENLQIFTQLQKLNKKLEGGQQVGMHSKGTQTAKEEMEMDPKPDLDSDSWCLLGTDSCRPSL

CDK7 = CDK7 (Homo sapiens, UniProt P50613)
EPHB2 = target: T2, EPHB2 (Homo sapiens, UniProt P29323)
T2 sequence (P29323 1-1055): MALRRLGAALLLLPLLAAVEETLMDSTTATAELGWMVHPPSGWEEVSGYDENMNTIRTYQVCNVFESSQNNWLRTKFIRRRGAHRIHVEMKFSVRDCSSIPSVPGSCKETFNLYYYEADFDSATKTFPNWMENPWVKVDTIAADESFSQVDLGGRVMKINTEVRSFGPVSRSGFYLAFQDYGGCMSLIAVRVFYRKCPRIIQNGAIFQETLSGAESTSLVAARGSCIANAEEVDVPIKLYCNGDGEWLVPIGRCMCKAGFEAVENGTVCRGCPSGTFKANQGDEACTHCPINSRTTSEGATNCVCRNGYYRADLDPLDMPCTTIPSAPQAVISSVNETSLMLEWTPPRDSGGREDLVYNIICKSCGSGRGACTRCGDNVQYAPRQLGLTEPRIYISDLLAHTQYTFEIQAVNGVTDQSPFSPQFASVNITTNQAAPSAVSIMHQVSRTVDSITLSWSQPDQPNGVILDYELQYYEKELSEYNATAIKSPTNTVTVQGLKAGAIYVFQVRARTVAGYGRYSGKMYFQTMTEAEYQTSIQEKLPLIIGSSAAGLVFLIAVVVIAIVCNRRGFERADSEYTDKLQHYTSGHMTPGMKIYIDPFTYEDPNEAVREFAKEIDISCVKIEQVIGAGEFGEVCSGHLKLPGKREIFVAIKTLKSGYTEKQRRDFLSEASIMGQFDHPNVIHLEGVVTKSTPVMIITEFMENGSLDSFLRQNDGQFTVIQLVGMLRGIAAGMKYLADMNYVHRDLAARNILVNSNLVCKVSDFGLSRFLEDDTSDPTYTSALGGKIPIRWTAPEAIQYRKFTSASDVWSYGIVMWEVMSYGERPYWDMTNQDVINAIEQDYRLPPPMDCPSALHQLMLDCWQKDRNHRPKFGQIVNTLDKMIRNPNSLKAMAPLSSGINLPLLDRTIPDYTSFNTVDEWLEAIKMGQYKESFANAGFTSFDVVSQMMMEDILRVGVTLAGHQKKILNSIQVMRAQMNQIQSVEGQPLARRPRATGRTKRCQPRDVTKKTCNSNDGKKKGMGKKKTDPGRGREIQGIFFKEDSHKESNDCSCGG

ANKK1 = target: T3, ANKK1 (Homo sapiens, UniProt Q8NFD2)
T3 sequence (Q8NFD2 1-765): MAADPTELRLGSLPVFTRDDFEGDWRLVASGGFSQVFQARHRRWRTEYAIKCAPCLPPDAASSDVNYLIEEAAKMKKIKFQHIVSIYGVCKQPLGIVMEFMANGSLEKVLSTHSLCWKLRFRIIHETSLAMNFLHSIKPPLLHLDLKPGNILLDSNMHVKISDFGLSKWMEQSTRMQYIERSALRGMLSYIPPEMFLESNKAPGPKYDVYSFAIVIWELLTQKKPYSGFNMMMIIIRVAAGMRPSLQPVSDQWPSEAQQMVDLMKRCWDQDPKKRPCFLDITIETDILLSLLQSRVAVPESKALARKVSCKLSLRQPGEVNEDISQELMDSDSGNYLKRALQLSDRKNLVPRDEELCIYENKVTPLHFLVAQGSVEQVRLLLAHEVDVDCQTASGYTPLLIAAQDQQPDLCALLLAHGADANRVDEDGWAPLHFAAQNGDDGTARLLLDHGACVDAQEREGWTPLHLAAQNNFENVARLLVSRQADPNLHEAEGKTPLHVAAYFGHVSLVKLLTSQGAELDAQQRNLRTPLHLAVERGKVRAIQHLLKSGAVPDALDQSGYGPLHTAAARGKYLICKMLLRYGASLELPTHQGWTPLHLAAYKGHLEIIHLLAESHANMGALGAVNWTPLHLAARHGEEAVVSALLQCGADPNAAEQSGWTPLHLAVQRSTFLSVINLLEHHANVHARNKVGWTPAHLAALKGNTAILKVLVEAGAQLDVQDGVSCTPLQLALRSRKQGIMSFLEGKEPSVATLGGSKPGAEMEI

[1] = read-out: Niraparib (MK-4827) / %Ctrl @ 10000nM
[2] = read-out: Rucaparib / %Ctrl @ 10000nM, binding competition, % of control
[3] = read-out: Olaparib / %Ctrl @ 10000nM
[4] = read-out: Talazoparib (BMN 673) / %Ctrl @ 10000nM

Chain of CDK7 (P50613 whole entry): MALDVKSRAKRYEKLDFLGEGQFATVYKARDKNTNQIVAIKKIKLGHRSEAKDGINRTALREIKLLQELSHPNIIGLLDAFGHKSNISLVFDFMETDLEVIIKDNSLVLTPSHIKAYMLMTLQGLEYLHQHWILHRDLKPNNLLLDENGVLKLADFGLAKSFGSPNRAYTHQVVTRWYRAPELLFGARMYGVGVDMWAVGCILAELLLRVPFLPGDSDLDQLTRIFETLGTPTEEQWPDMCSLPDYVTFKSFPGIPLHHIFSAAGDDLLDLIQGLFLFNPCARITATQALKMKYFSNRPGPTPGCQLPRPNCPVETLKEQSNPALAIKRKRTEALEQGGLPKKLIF

SMILES: NC(=O)c1cccc2cn(-c3ccc([C@@H]4CCCNC4)cc3)nc12 [Niraparib]
percent of control binding at 10 µM (NEK9; [1]): 100%
percent of control binding at 10 µM (CDK7; [1]): 73%
percent of control binding at 10 µM (EPHB2; [1]): 75%
percent of control binding at 10 µM (ANKK1; [1]): 100%

percent of control binding at 10 µM (CDK7; [2]): 71%
percent of control binding at 10 µM (EPHB2; [2]): 91%
percent of control binding at 10 µM (ANKK1; [2]): 71%
SMILES: CNCc1ccc(-c2[nH]c3cc(F)cc4c3c2CCNC4=O)cc1 [Rucaparib]
percent of control binding at 10 µM (NEK9; [2]): 100%

percent of control binding at 10 µM (CDK7; [3]): 89%
percent of control binding at 10 µM (EPHB2; [3]): 95%
percent of control binding at 10 µM (ANKK1; [3]): 90%
SMILES: O=C(c1cc(Cc2n[nH]c(=O)c3ccccc23)ccc1F)N1CCN(C(=O)C2CC2)CC1 [Olaparib]
percent of control binding at 10 µM (NEK9; [3]): 100%

percent of control binding at 10 µM (CDK7; [4]): 100%
percent of control binding at 10 µM (EPHB2; [4]): 89%
percent of control binding at 10 µM (ANKK1; [4]): 100%
SMILES: Cn1ncnc1[C@H]1c2n[nH]c(=O)c3cc(F)cc(c23)N[C@@H]1c1ccc(F)cc1 [Talazoparib]
percent of control binding at 10 µM (NEK9; [4]): 99%
